Read-outs that look alike come from different tables or passages of the source.
Legend:
HL-60 cells = experiment: Cellular diversion of human leukemic cells (NBT); type: cell-based; details: human leukemic cells (HL-60); index of normal cells
[1] = system: NNK-induced pulmonary adenomas; experiment: NNK-induced lung tumorigenesis; type: in vivo; details: mice, 20 mg/kg daily by injection, NNK 10 μmol i.p., sixteen weeks
Procedure: Every group had 20 mice. […] For control group, each mouse was gave same volume of physiological saline. Three days later, mice were gave 10 μmol NNK (in 0.1 ml saline) by i.p. injection. Sixteen weeks after these treatments the mice were killed and pulmonary adenomas were counted. The statistical significance of bioassay data was determined by student's test.

[2] = system: Malignant melanoma of the pigmented layers of eyes; experiment: Inhibition of tumor cell proliferation, malignant melanoma of eyes; type: cell-based; details: 1 μg/ml, 72 hours
Procedure: (§1) Human tumor cell lines: Hela leukemia HL-60, malignant melanocarcinoma B16, oral epidermoid carcinoma (KB), lung carcinoma (A549), breast carcinoma MCF-7, adenocarcinoma of stomach.
(§2) Animal tumor cell lines: Walker carcinoma, LLC-WRC-256, malignant melanoma (RMMI 1846), 3T3, and S-180 sarcoma (CCRF-180). All lines were routinely cultured in the RPMI1640 medium supplemented 20% fetal calf serum. The experiment was carried out in 96 microplate, each well had 5×10^5 cells and given desired concentration of 1 μg/ml (1×10^−6 g/ml) drug. Then the plate was incubated at […] in an atmosphere of humidified air enriched with 5 percent carbon dioxide for 72 hours.
(§3) Inhibition percent rate of tumor cell proliferation was obtained according to the bellow formula.

mice = experiment: LD50 in mice; type: in vivo; details: injection in abdominal cavity in mice
Source text: (§4) • 1. […] LD50 of HHT is much higher than majority anticancer drugs. The toxicology data of HHT mean that HHT is safe drug for treatment of cancer cells.

L615 transplanted tumor = experiment: Growth of transplanted tumor in mice; type: in vivo; details: intraperitoneally, 20 mg/kg, sacrificed on the 12th day
Procedure: Male mice, weight 20-22 g, were used in the experiment. 1×10^7 tumor cells were injected to mouse and other drugs injected intraperitoneally began second day. All mice were sacrificed on the 12th day, isolated the tumor and weighed and calculated the inhibition rate of tumor weight.
The effect of HHT on the growth of animal transplanted tumor as illustrated by the Table 6.20 mg/kg of other drugs could inhibit the growth of L615 transplanted tumor.

gastric cancer cells = experiment: Cellular diversion of gastric cancer cells (NBT); type: cell-based
Malignant melanoma cells = experiment: Apoptosis of malignant melanoma cells; type: cell-based; details: 50 ng/ml
Procedure: (§5) Cells ([…] were incubated in 10 ml IMDM plus […] heat-inactivated fetal calf serum. Samples were incubated for 24 hours with various concentrations of drugs. Control samples received the same amount of media, without drug addition. After 24 hours of incubation the samples were pelleted and fixed in ethanol […] for 15 minutes at 4° C.; after three washes in PBS, the cells were treated with RNase I 0.5 mg/ml for 15 minutes at 37° C. The cells were harvested by centrifugation and resuspended in 50 μg/ml propidium iodide in PBS. Analysis (upon acquisition of 10,000-20,000 events) was performed on a FACscan flow cytometer with the FL2 detector in logarithmic mode, using Lysis II software (Becton Dickinson). […]
(§6) For evaluation of apoptosis by flow cytometry, cells were fixed and permeabilized in 1% paraformaldehyde and ice-cold 70% ethanol. […] Green (apoptotic cells) and orange (total DNA) fluorescence were measured with a FACScan flow cytometer and analyzed with LYSIS II and CELLFIT programs. Data were analyzed by Student's t-test. […]
(§7) Untreated and treated HL-60 cells collected by centrifugation, washed in phosphate buffered saline and re-suspended at a concentration of 5×10^6 cells and 0.1% RNase A. The mixture was incubated at 37° C. for 30 min and then incubated for an additional 30 min at 37° C. […] DNA was precipitated with 0.5 N perchloric acid and quantitated using diphenylamine reagent. […]

Normal cells = experiment: Apoptosis of normal cells; type: cell-based; details: 50 ng/ml (Table 4)
Procedure: as §5, §6, §7

tyrosine kinase (TK) = experiment: Tyrosine kinase (TK) assay in HL-60 leukemia cells; type: cell-based, human; details: for % of control activity (TK): Table 8, concentration not given
Procedure: Tyrosine kinase (TK) Assay: TK was measured by a modification of the method of Braun et al. Briefly, H-60 leukemia cells were plated at a density of 5×10^5 cells in […], and divided control and treatments groups for incubation 24 hours at 37° C. with 5% CO2. The cells were collected by scraping, washed twice with phosphate-buffered saline, and resuspended at density of 10^6 cells/ml in 5 mM HEPEs buffer (pH 7.4). The cells were then resuspended in 1 ml of buffer containing 5 mM HEPES (pH 7.6), 1 mM MgCl2 and 1 mM EDTA, then placed on ice bath. The cell membrane was disrupted by ultra sound and centrifuged at 1,000×g for 10 minutes. The supernatant was ultra centrifuged at 30,000×g for 30 minutes at 4° C. The pellet was resuspended in 0.3 ml of buffer containing 25 mM HEOES, centrifuged at 12,000×g for 5 minutes. The resulting supernatant was used for TK assay. Content of protein was determined. 10 μg of protein placed in 20 mM HEPES (pH 7.6), 15 mM MgCl2, 10 mM ZnCl2 and 5% (v/v) nonidet P-40, with or without substrate [glutamic acid (GT), mg/ml]. After 5 minutes incubation at 25° C., the reaction was initiated by the addition of 25 μM [γ^32P] ATP (3 ci/mmol). After 10 minutes, the reaction was stopped by the addition of 20 mM cold ATP. 50 μl of the mixtures were spotted on glass microfiber filter discs and washed three times with cold trichloroacetic acid (TCA), contained 10 mM sodium pyrophosphate. Air dried. Radioactivity was determined by liquid scintillation spectrometry. The net TK activity was determined after correcting for endogenous TK activity.

Leukemic cells = experiment: Inhibition of tumor cell proliferation, leukemic cells; type: cell-based, human; details: 1 μg/ml, 72 hours
Procedure: as §1, §2, §3

dogs [3] = experiment: Short-term toxicity in dogs
Procedure: (§8) Forty dogs were used. Body weight, food consumption, general observations, laboratory tests, and postmortem examinations were determined.
(§9) Twenty normal adult dogs had weight approximately 10 kg±1 kg used in experiments. Toxic doses for dogs: 0.15 mg/kg/days×7 and 0.30 mg/kg/days×7 of HHT was injected as the toxic doses.
(§10) For HHT treatment group, at least eight dogs that died early in the observation period and eight dogs that died late were examined.

dogs [4] = details: dog, in vivo
Procedure: as §8, §9, §10

LD50 in mice = type: in vivo; details: mouse, in vivo, intraperitoneal; injection in abdominal cavity in mice
Source text: as §4

| SMILES | NBT (%) (HL-60 cells) | Tumor incidence (%) [1] | Inhibition (%) [2] | LD50 (mice) | Inhibition (%) of transplanted tumor (tumor weight) (L615 transplanted tumor) | Apoptosis (%) (Malignant melanoma cells) | Apoptosis (%) (Normal cells) | % of control activity (TK) (tyrosine kinase (TK)) | Inhibition (%) (Leukemic cells) | further results |
| --- | --- | --- | --- | --- | --- | --- | --- | --- | --- | --- |
| COC(=O)C[C@](O)(CCCC(C)(C)O)C(=O)O[C@@H]1C(OC)=C[C@]23CCCN2CCc2cc4c(cc2[C@H]13)OCO4 [C-HHT] | 64 ± 8.0 % | 21.7 ± 4.8 % | 83.1 ± 9.8% | 4.0 mg/kg | 67.8 ± 6.0% | 43.8 ± 4.2 % | 19.2 ± 2.5 % | 20.0 ± 5.0% | 74.1 ± 10.8% | NBT (%) (gastric cancer cells): 57 ± 8.9 % |
| COC(=O)C[C@](O)(CCCC(C)(C)O)C(=O)O[C@@H]1C(OC)=C[C@]23CCCN2CCc2cc4c(cc2[C@H]13)OCO4 [S-HHT] | 63 ± 7.8 % | 26.5 ± 4.9 % | 82.5 ± 10.2% | 4.20 mg/kg | 69.2 ± 7.0 % | 43.0 ± 6.0 % | 18.0 ± 2.0 % | 20.8 ± 4.8 % | 72.5 ± 11.6% |  |
| COC(=O)C[C@](O)(CCCC(C)(C)O)C(=O)O[C@@H]1C(OC)=C[C@]23CCCN2CCc2cc4c(cc2[C@H]13)OCO4 [HHT, Homoharringtonine] |  |  |  |  |  |  |  |  |  | Heart rate (dogs [3]; 0.1 mg/kg/d × 7, ♀): 208 beat/min; Leukocyte count (dogs [3]; 0.1 mg/kg/d × 7, ♀): 3.91 ×10^3/mm^3; Heart rate (dogs [3]; 0.2 mg/kg/d × 7, ♀): 232 beat/min; Leukocyte count (dogs [3]; 0.2 mg/kg/d × 7, ♀): 3.65 ×10^3/mm^3; Heart rate (dogs [3]; 0.3 mg/kg/d × 7, ♀): 260 beat/min; Leukocyte count (dogs [3]; 0.3 mg/kg/d × 7, ♀): 3.25 ×10^3/mm^3; inhibition at 1 µg/mL [2]: 80 ± 9.2%; delayed toxicity (dogs [4]): No significant delayed toxicity; major target organs involved in toxicity (dogs [4]): G.I. tract, heart and hematopoietic organs; Heart rate (dogs [4]; 0.1 mg/kg/day): 205 beat/min; Leukocyte count (dogs [4]; 0.1 mg/kg/day): 3.90 ×10^3/mm^3; Heart rate (dogs [4]; 0.2 mg/kg/day): 230 beat/min; Leukocyte count (dogs [4]; 0.2 mg/kg/day): 3.58 ×10^3/mm^3; Heart rate (dogs [4]; 0.3 mg/kg/day): 259 beat/min; Leukocyte count (dogs [4]; 0.3 mg/kg/day): 3.20 ×10^3/mm^3; LD50 (LD50 in mice): 4.07 mg/kg; inhibition of TK activity (tyrosine kinase (TK); 10^−6 M): 99.9% |
